1 molecule from patent US10045994B2, “Agents for treating multiple myeloma” (SERVICIO ANDALUZ DE SALUD, priority 2013, dated 2018) can be followed below.

SMILES strings stand for the structures. “Also recorded” adds a separate entry of the source. Where two headings read alike, the source gives them in different places.

Data set [1] deals with myeloma cell line U266. The experiment in a line: Cell viability by flow cytometry (7AAD labeling), U266. It counts as cell-based. The following applies: U266, 7AAD flow cytometry, 48 h. On the procedure:
These same assays were repeated incubating the myeloma cell line U266 for a period of 48 hours with increasing concentrations of WIN 55,212-2 between 0.5 and 50 uM.
(§1) For the viability analysis by means of flow cytometry, the cells were treated with suitably labeled monoclonal antibodies for the identification of each of the cell types used. Once labeled; the cells were exposed for 15 min to 7AAD ([…]) to evaluate cell viability; the reading was performed in the cytometer and analyzed with the computer program adapted for the cytometer. At least 100,000 events were acquired, and the mean fluorescence intensity was obtained.
These same assays were repeated, incubating myeloma cell line U266 for a period of 48 hours with increasing concentrations of WIN 55,212-2 between 0.5 and 50 uM. Nevertheless, cell viability was determined by means of flow cytometry instead of by means of MTT metabolization.
A general note: In flow cytometry, cells or beads pass a laser one at a time.

Data set [2] relates to multiple myeloma cell line MM1.S. Description: MTT cell viability, multiple myeloma cell line MM1.S. It counts as cell-based. On the procedure: In this sense, in order to carry out these assays the authors incubated the myeloma cell line MM1.S at different concentrations with the cannabinoid agent WIN 55-212,2 for 48 and 96 hours, and cell viability was determined by means of MTT metabolization. Mean proliferation values of untreated control cell cultures were taken as 100%. The data corresponds to the means+/−the standard deviation of the triplicates of each of the 4 assays performed. […] Cell viability also drops after 96 hours of exposure to the drug at the same concentrations.
(§2) The method for the determination of cell viability by means of the MTT assay is based on the capacity that viable cells have of metabolizing 3-(4,5-dimethylthiazol-2-yl)-2,5-diphenyltetrazol (MTT) bromide. The metabolic reduction of MTT due to the action of the mitochondrial enzyme, succinate dehydrogenase, gives rise to the insoluble and colored form called formazan, which can be quantified by means of spectrocolorimetry. The amount of living cells is proportional to the optical density resulting.
(§3) After incubation with cannabinoids, 10 microliters of MTT were added to each well and were incubated 2-4 hours in the same conditions. The reaction is subsequently stopped, the crystallized formazan is solubilized and optical density was determined at 450 nm in a plate spectrophotometer. All the assays were performed in triplicate.
In this sense, in order to carry out these assays the authors incubated myeloma cell line MM1.S at different concentrations with the cannabinoid agent WIN 55-212,2 for 48 and 96 hours, and cell viability was determined by means of MTT metabolization. Mean proliferation values of untreated control cell cultures were taken as 100%. The data corresponds to the means +/− the standard deviation of the triplicates of each of the 4 assays performed. […] Cell viability also drops after 96 hours of exposure to the drug ay the same concentrations.

For another data set, the system named is CD38+ plasma cells. The experiment in a line: 7AAD viability of plasma cells in primary bone marrow culture of myeloma patients. Type of data set: cell-based, human. On the procedure:
Finally, the authors of the present invention evaluated the toxicity of cannabinoid agent WIN 55,212-2, which was determined in terms of cell viability by means of two types of assays, one based on the drop in 3(4,5dimethyl-2-thiazoyl)-2,5-diphenyltetrazolic bromide (MTT), and another one based on the interaction of 7AAD. Primary cultures of mononuclear cells obtained from peripheral blood from healthy donors (CD34+ hematopoietic progenitors) and from bone marrow of patients suffering multiple myeloma (CD64+, granulocytes (B), CD45+, lymphocytes (C) and CD38+, plasma cells (D)) were used.
The plasma cells, granulocytes and lymphocytes were obtained from bone marrow samples from patients with multiple myeloma after hypotonic lysis with ammonium chloride (0.16 M in 0.17 M Tris, pH 7.6) for 10 min at room temperature, for the purpose of removing the erythrocyte cell population. The cell suspension resulting from lysis, which only contains mononuclear cells, was seeded in multiwell plates at the same cell density as the progenitor cells using supplemented RPMI medium plus 20% fetal bovine serum.
The primary cultures were incubated in the presence and absence of the cannabinoid agent WIN 55,212-2 at different concentrations. […]
as §1
(§4) The authors of the present invention evaluated the toxicity of cannabinoid agent WIN 55,212-2, which was determined in terms of cell viability by means of two types of assays, one based on the drop in 3(4,5dimethyl-2-thiazoyl)-2,5-diphenyltetrazolic (MTT) bromide, and another one based on the interaction of the 7AAD. […]

For data set [3], the system named is CD64+ granulocytes (polymorphonuclear cells). Description: 7AAD viability of granulocytes in primary bone marrow culture of myeloma patients. Type of data set: cell-based, human. The settings on record: 0.5-50 micromol, 18 h. On the procedure:
(§5) Finally, the authors of the present invention evaluated the toxicity of cannabinoid agent WIN 55,212-2, which was determined in terms of cell viability by means of two types of assays, one based on the drop in 3(4,5dimethyl-2-thiazoyl)-2,5-diphenyltetrazolic bromide (MTT), and another one based on the interaction of 7AAD. Primary cultures of mononuclear cells obtained from peripheral blood from healthy donors (CD34+ hematopoietic progenitors) and from bone marrow of patients suffering multiple myeloma (CD64+, granulocytes (B), CD45+, lymphocytes (C) and CD38+, plasma cells (D)) were used. […]
as §1, §4

Data set [4] concerns myeloma cell line U266. Description: MTT cell viability, myeloma cell line U266. Type of data set: cell-based. The settings on record: for cytotoxicity at 50 µM: Homo sapiens. On the procedure: In order to determine the effect of the cannabinoid compound WIN 55,212-2, myeloma cell line U266 was incubated for a period of 48 and 96 hours with increasing concentrations of WIN 55,212-2 between 0.5 and 50 uM; cell viability was determined by means of the MTT metabolization. The MTT assay is based on the capacity of the mitochondrial enzyme, succinate dehydrogenase, of viable cells for transforming the tetrazolium salt MTT into a blue-colored product, MTT formazan, which is proportional to the number of living cells present. The mean proliferation values of the untreated control cell cultures were taken as 100%.
as §2, §3
To determine the effect of cannabinoid compound WIN 55,212-2, myeloma cell line U266 was incubated for a period of 48 and 96 hours with increasing concentrations of WIN 55,212-2 between 0.5 and 50 uM; cell viability was determined by means of MTT metabolization. The MTT assay is based on the capacity of the mitochondrial enzyme, succinate dehydrogenase, of viable cells to transform tetrazolium salt MTT into a blue-colored product, formazan MTT, which is proportional to the number of living cells present. Mean proliferation values of untreated control cell cultures were taken as 100%.

For another data set, the system named is CD45+ lymphocytes. Description: 7AAD viability of lymphocytes in primary bone marrow culture of myeloma patients. It counts as cell-based, human. On the procedure:
as §5, §1, §4

Data set [5] relates to CD34+ hematopoietic progenitors. The experiment in a line: MTT cytotoxicity on CD34+ hematopoietic progenitors from healthy donors. Type of data set: cell-based, human. The following applies: CD34+ hematopoietic progenitors of healthy donors, 0.5-50 micromol, 12 or 18 h. As to the method: as §5
The method for the determination of cell viability by means of the MTT assay is based on the capacity that viable cells have of metabolizing 3-(4,5-dimethylthiazol-2-yl)-2,5-diphenyltetrazol (MTT) bromide. The metabolic reduction of MTT due to the action of the mitochondrial enzyme, succinate dehydrogenase, gives rise to the insoluble and colored form called formazan, which can be quantified by means of spectrocolorimetry. […]
After incubation with cannabinoids, 10 microliters of MTT were added to each well and were incubated 2-4 hours in the same conditions. The reaction is subsequently stopped, the crystallized formazan is solubilized and optical density was determined at 450 nm in a plate spectrophotometer. […]

In the case of `Cc1c(C(=O)c2cccc3ccccc23)c2cccc3c2n1[C@H](CN1CCOCC1)CO3` [WIN 55,212-2, (R)-(+)-[2,3-Dihydro-5-methyl-3-(4-morpholinylmethyl)pyrrolo[1,2,3-de]-1,4 benzoxazin-6-yl]-1-naphtalenylmethanone], the “concentration from which a cytotoxic effect (significant drop in cell viability, p<0.05) is seen” value with myeloma cell line U266 [1] was at least 10 µM. Moreover, the “sensitivity of cell line MM1.S compared with cell line U266” value in data set [2] (48 and 96 h) is on record as “more sensitive”. Moreover, the “concentration after which cell viability noticeably dropped” value in data set [2] (MM1.S, 48 h) is reported as “greater than 1 uM”. Besides, in data set [2] (MM1.S, 48 h, 10 uM, 20 uM and 50 uM), the cytotoxicity result was “greater than 50%”. For the same molecule, the “cell viability after longer incubation” value in data set [2] (MM1.S, 96 h, same concentrations as at 48 h) was “also drops; also recorded: also affected”. Besides, in data set [2] (MM1.S, 96 h vs 48 h), the “drop in cell viability at 96 h compared with 48 h” value is “lower than at short incubation times”. Also, the cytotoxicity at 50 µM in the data set with CD38+ plasma cells (Homo sapiens, 18 h, read-out: reduction of cell viability) was above 80%; in the data set with myeloma cell line U266 [4] (U-266, 48 h, read-out: inhibition of cell viability, U266, MTT, 48 h, 50 uM), around 60%; in the data set with myeloma cell line U266 [4] (U-266, 96 h, read-out: inhibition (drop) of cell viability, U266, MTT, 96 h, 50 uM), around 80%. Besides, the “doses producing a drastic drop in cell viability” value in the data set on CD38+ plasma cells (plasma cells, bone marrow primary culture, 12 or 18 h) is listed as “greater than 10 uM”. Also, the “population of plasma cells after incubation” value with CD38+ plasma cells (plasma cells, bone marrow primary culture, 18 h, 20 uM and 50 uM) is reported as “drastically reduced”. The cell viability result in data set [3] and in data set [5] was “not affected” in each case. The “cell viability drops to” value in the data set on myeloma cell line U266 [4] (U266, MTT, 48 h, 10 uM and 20 uM, untreated control = 100%) stood at 40%. Besides, the “inhibition of cell viability” value in the data set with myeloma cell line U266 [4] (U266, MTT, 48 h, between 10 uM and 20 uM) is given as “about 40%”. Besides, the loss of viability entry in the data set on CD45+ lymphocytes (0.5-50 micromol, 12 or 18 h) is given as “only detected at the highest dose”. Further, the “drop in cell viability” value in the data set with CD45+ lymphocytes (7AAD, 18 h, 50 uM) turned out to be 40%.
